Measured values published in publication PMC6760779, “Unraveling the functional role of the orphan solute carrier, SLC22A24 in the transport of steroid conjugates through metabolomic and genome-wide association studies” (PLoS Genetics, 2019).
Counter-ions that a name gives are not always drawn. Like-named read-outs stand apart in the source and are kept apart here.

Assays:
SLC22A24 = target: T1, SLC22A24 (Homo sapiens, UniProt Q8N4F4); assay: cell-based
T1 sequence (Q8N4F4 1-552): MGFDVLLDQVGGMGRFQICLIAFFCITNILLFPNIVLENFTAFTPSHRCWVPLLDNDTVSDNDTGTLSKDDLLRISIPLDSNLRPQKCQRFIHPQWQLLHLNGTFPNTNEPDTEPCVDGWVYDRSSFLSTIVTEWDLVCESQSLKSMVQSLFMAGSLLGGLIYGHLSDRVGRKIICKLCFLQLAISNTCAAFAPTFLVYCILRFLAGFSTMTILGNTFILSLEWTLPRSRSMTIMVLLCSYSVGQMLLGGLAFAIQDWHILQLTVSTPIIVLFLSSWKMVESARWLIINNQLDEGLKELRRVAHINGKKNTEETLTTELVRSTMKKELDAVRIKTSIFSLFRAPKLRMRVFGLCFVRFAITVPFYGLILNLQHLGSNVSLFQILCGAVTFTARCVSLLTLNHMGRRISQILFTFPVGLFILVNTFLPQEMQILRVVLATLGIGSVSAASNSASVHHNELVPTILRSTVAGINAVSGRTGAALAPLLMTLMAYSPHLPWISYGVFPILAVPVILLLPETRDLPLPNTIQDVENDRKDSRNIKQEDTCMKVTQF

[1] = substrate: C[C@]12CC[C@@H]3c4ccc(OS(=O)(=O)O)cc4CC[C@H]3[C@@H]1CCC2=O; assay: cells, lysate or membranes
[2] = substrate: C[C@H](CCC(=O)NCC(=O)O)[C@H]1CC[C@H]2[C@@H]3[C@H](O)C[C@@H]4C[C@H](O)CC[C@]4(C)[C@H]3C[C@H](O)[C@]12C; assay: cells, lysate or membranes; type: cell-based, Homo sapiens
[3] = substrate: C[C@]12CC[C@@H]3c4ccc(O)cc4CC[C@H]3[C@@H]1CC[C@@H]2O[C@@H]1O[C@H](C(=O)O)[C@@H](O)[C@H](O)[C@H]1O; assay: cells, lysate or membranes; type: cell-based, Homo sapiens

Work on C[C@H](CCC(=O)O)[C@H]1CC[C@H]2[C@@H]3[C@@H](O)C[C@@H]4C[C@H](O)CC[C@]4(C)[C@H]3CC[C@]12C [Ursodeoxycholic acid] yielded an IC50 (SLC22A24; read-out: IC50 [μM ± SD]) of 7.6 ± 1.2 µM.

Work on C[C@H](CCC(=O)O)[C@H]1CC[C@H]2[C@@H]3[C@H](O)C[C@@H]4C[C@H](O)CC[C@]4(C)[C@H]3CC[C@]12C [Chenodeoxycholic acid] yielded an IC50 (SLC22A24; read-out: IC50 [μM ± SD]) of 2.6 ± 1 µM.

Work on CC(=O)[C@H]1CC[C@H]2[C@@H]3CCC4=CC(=O)CC[C@]4(C)[C@H]3CC[C@]12C [Progesterone] yielded an IC50 (SLC22A24) of 7.4 ± 3 µM.

Work on O=C(O)CSc1nnc(Br)n1-c1ccc(C2CC2)c2ccccc12 [Lesinurad] yielded an IC50 (SLC22A24; read-out: IC50 [μM ± SD]) of 13 ± 6.1 µM.

CC(=O)[C@H]1CC[C@H]2[C@@H]3CC=C4C[C@@H](OS(=O)(=O)O)CC[C@]4(C)[C@H]3CC[C@]12C [Pregnenolone sulfate] showed an IC50 (SLC22A24) of 1.4 ± 0.1 µM.

CN(CCOc1ccc(CC2SC(=O)NC2=O)cc1)c1ccccn1 (stereo not drawn) [Rosiglitazone] gave an IC50 (SLC22A24; read-out: IC50 [μM ± SD]) of 3.3 ± 1.4 µM.

B1: SLC22A24 (Homo sapiens) (protein)
chain: MGFDVLLDQVGGMGRFQICLIAFFCITNILLFPNIVLENFTAFTPSHRCWVPLLDNDTVSDNDTGTLSKDDLLRISIPLDSNLRPQKCQRFIHPQWQLLHLNGTFPNTNEPDTEPCVDGWVYDRSSFLSTIVTEWDLVCESQSLKSMVQSLFMAGSLLGGLIYGHLSDRVGRKIICKLCFLQLAISNTCAAFAPTFLVYCILRFLAGFSTMTILGNTFILSLEWTLPRSRSMTIMVLLCSYSVGQMLLGGLAFAIQDWHILQLTVSTPIIVLFLSSWKMVESARWLIINNQLDEGLKELRRVAHINGKKNTEETLTTELVRSTMKKELDAVRIKTSIFSLFRAPKLRMRVFGLCFVRFAITVPFYGLILNLQHLGSNVSLFQILCGAVTFTARCVSLLTLNHMGRRISQILFTFPVGLFILVNTFLPQEMQILRVVLATLGIGSVSAASNSASVHHNELVPTILRSTVAGINAVSGRTGAALAPLLMTLMAYSPHLPWISYGVFPILAVPVILLLPETRDLPLPNTIQDVENDRKDSRNIKQEDTCMKVTQF
With B1 the Km [1] was 8.6 ± 0.3 µM, the Km [2] was 33.4 ± 2.5 µM and the Km [3] was 17.5 ± 0.2 µM.
